The nature of data set [1]: Pharmacokinetics study of (+)/(−) epicatechin and their trigonelline (1:1) co-crystals, oral (Example 3). The data set is classed as in vivo. As to conditions: rat, 10 mg/kg, male SD rats, 10 mpk equivalent of parent drug, vehicle CMC and Tween 80, plasma; for half-life: read-out: T½ elimination (converted). How it is done:
(§1) Co-crystals of the present invention were administered orally (PO) at a dose of 10 mpk equivalent of parent drugs in male SD rats. The PK results of the compound were compared with exposure of parent drugs. […] Blood samples were centrifuged at 10,000 rpm for 5 min. at 4° C. to obtain the plasma, which were aspirated into separate labelled tubes and stored at −80° C. Extraction solvent was added to plasma, was vortexed and shaken on shaker for 10 minutes, centrifuged at 10,000 rpm for 10 minutes at 4° C. Supernatant was kept for analysis.

The conditions of data set [2]: average; male SD rats, PO, 14 mpk of Compound 109 (equivalent to 10 mpk epicatechin), vehicle 0.5% CMC. How it is done:
A pharmacokinetics study was carried out to evaluate the plasma exposure of D-proline co-crystals of (+) epicatechin (Compound 109). Co-crystals were administered orally (PO) at a dose of 14 mpk of Compound 109, which is equivalent to 10 mpk of epicatechin. The dosing vehicle that was used in this study was 0.5% CMC. After oral dosing, blood was collected by serial bleeding at different time points in heparinised tubes. Blood samples were centrifuged at 10,000 rpm for 5 min. at 4° C. to obtain the plasma, which were aspirated into separate labelled tubes and stored at −80° C. Extraction solvent was added to plasma, was vortexed and shaken on a shaker for 10 minutes, and then centrifuged at 10,000 rpm for 10 minutes at 4° C. Supernatant was kept for analysis. Acetonitrile and plasma calibration curves were generated and percentage of drug recovery from plasma determined. Quantitative analysis was done by liquid chromatography tandem mass spectrometer (API3000 LC-MS/MS). PK parameters were calculated using Graph Pad PRISM version 5.04 and the results are depicted in Table 7.

The nature of data set [3]: Pharmacokinetics study of (+) epicatechin (SPR590) and its trigonelline (1:1) co-crystal (SPR515), oral (Example 4). The data set is classed as in vivo. Particulars: rat, plasma, male SD rats, CMC and Tween 80. How it is done: as §1, with “mpk” for “mpk equivalent of parent drugs”, “rats for the control (+) epicatechin group and 10 mpk of SPR 515 which is equivalent to 6.25 mpk of epicatechin.” for “rats.”

The mark [4] stands for this setting: PO, dose 10 mpk (MW adjusted (+)-epicatechin dose: SPR590 10 mpk, SPR515 6.25 mpk).

Structures are written as SMILES. Like-named read-outs stand apart in the source and are kept apart here.

By AUC is commonly meant concentration integrated over time. A word on the Cmax: it is the highest concentration seen after dosing. One may read the Tmax as the time at which the peak concentration occurs. In the case of `Oc1cc(O)c2c(c1)O[C@H](c1ccc(O)c(O)c1)[C@H](O)C2` [Compound 107, (−) epicatechin], in data set [1], the AUC was 0.678 µM·h, the Cmax stood at 386 nM, the Tmax was determined as 18 min and the half-life is 113 min.
As to `O=C(O)[C@H]1CCCN1.Oc1cc(O)c2c(c1)O[C@@H](c1ccc(O)c(O)c1)[C@@H](O)C2` [Compound 109, (+) Epicatechin_(D)-Proline (1:1) Co-Crystals], in data set [2], the AUC worked out at 1.90533 µM·h, the Cmax turned out to be 778 nM, the Tmax is 45 min and the T½ elimination is 103 min.
With `Oc1cc(O)c2c(c1)O[C@@H](c1ccc(O)c(O)c1)[C@@H](O)C2` [Compound 108, (+) epicatechin], in data set [1], the AUC is 0.579 µM·h, the Cmax was 333 nM, the Tmax was 60 min and the half-life was 49.8 min. In data set [3] (setting [4]), this compound came in with an AUC of 0.678 µM·h and a Cmax of 386 nM. The concentration at 0.16 h in data set [3] (time point 0.16 h, PO 10 mpk (SPR515: equivalent to 6.25 mpk epicatechin), read-out: Plasma level) was found to be 236 nM. Also, the concentration at 0.5 h in data set [3] (time point 0.5 h, PO 10 mpk (SPR515: equivalent to 6.25 mpk epicatechin), read-out: Plasma level) was determined as 338 nM. Further, in data set [3] (time point 1 h, PO 10 mpk (SPR515: equivalent to 6.25 mpk epicatechin), read-out: Plasma level), the concentration at 1 h is 262 nM. In addition, the concentration at 2 h in data set [3] (time point 2 h, PO 10 mpk (SPR515: equivalent to 6.25 mpk epicatechin), read-out: Plasma level) came out at 152 nM. In addition, the concentration at 4 h in data set [3] (time point 4 h, PO 10 mpk (SPR515: equivalent to 6.25 mpk epicatechin), read-out: Plasma level) came out at 24.1 nM. Moreover, the concentration at 8 h in data set [3] (time point 8 h, PO 10 mpk (SPR515: equivalent to 6.25 mpk epicatechin), read-out: Plasma level) was 0 nM.

Source of the values: patent publication US20210380535A1, “CO-CRYSTALS COMPRISING EPICATECHIN AND A CARBOXY-N-HETEROCYCLIC CO-CRYSTAL FORMER” (Epirium Bio Inc., priority 2018, published 2021).
